According to patent US20220324809A1, “ATP-REGULATED POTASSIUM CHANNEL OPENERS AND USES THEREOF” (SALZMAN GROUP LTD., priority 2019, published 2022):

Columns and labels:
Format in all cases: in vivo, Sprague-Dawley rats
[1] = system: MCT-induced PH; assay: Intratracheal aerosolized R-1703 in rat treatment model of MCT-induced PH: acute effect
Method: (§1) Intratracheal (IT) aerosolized R-1703 is effective in a rodent treatment model of MCT-induced PH: Acute effect. 28 days after injection of MCT (60 mg/kg SC) and development of severe and stable PH, mechanically ventilated and anaesthetized Sprague-Dawley rats were dosed IT with aerosolized solution (2.0 mL) containing 500 or 5000 ng/mL of R-1703 in PBS. Vehicle controls received an equivalent volume of PBS. MCT induced a large increase in MPAP.

[2] = system: MCT-induced PH; assay: Intratracheal aerosolized R-1703 in rat treatment model of MCT-induced PH: sustained effect
Method: as §1, with “Intratracheal” for “Intratracheal (IT)”, “Sustained” for “Acute”, “delivering 0.6, 6.0,” for “containing 500”, “30 micrograms per kg” for “5000 ng/mL”

[3] = system: MCT-induced PH; assay: Single IV administration of R-1703 in rat treatment model of MCT-induced PH (acute and sustained effect)
Excerpt: An established rat model for PH utilizes monocrotaline (MCT), a toxin derived from plants of the Crotalaria species, which causes pulmonary arterial endothelial cell injury and subsequent pulmonary artery smooth muscle hypertrophy. This model serves as a tool for assessing an immediate vasorelaxation effect by monitoring real-time right ventricular pressure in rats with PAH (late intervention regimen), as well as assessment of efficacy in a prevention of vascular remodeling progression (early intervention regimen). In the latter mode, weight ratios of left and right ventricles and histopathological assessment of right ventricular hypertrophy are used to evaluate the extent of fibrosis. R-1703 is effective in acutely treating a rodent model of MCT-induced PH. Sprague-Dawley rats (n=3 per group) were treated with a single subcutaneous (SC) injection of MCT with 60 mg/kg or an equivalent volume of saline (2 mL/kg). After a post-MCT period of 28 days wherein rats developed severe and stable PH, rats were anesthetized and endotracheally intubated, followed by a single intravenous (IV) administration of R-1703 (15, 30, 60, and 90 μg/kg, in PBS) via the tail vein. Vehicle controls received an equivalent volume of PBS. MCT induced a large increase in MPAP (from 25 to 50 mmHg). […] The experiments shown below have been repeated three times and are reproducible.

[4] = system: MCT-induced PH; assay: Prophylactic daily IP R-1703 in rat model of MCT-induced PH; conditions: 50 micrograms per kg IP daily, measured 28 days post-MCT, p<0.001, FIG. 4
Method: Sprague-Dawley rats (n=3 per group) were treated with a single SC injection of MCT with 60 mg/kg or an equivalent volume of saline (2 mL/kg). Rats were then treated daily with 50 micrograms per kg of R-1703 by an intraperitoneal (IP) route of administration. After a post-MCT period of 28 days wherein vehicle control treated rats develop severe and stable PH, rats were anesthetized and endotracheally intubated.

[5] = IT aerosol 0.6, 6.0 or 30 micrograms per kg

CCC(C)(C)N/C(=N\C#N)Nc1cncc(C(=O)NCCO)c1 [R-1703]
effect on heart rate ([1]; IT aerosol 500 or 5000 ng/mL): no effect | effect on peripheral blood pressure ([1]; IT aerosol 500 or 5000 ng/mL): no effect | effect on MCT-induced elevation in MPAP ([1]; IT aerosolized solution 2.0 mL, 500 or 5000 ng/mL, acute effect, p<0.001, FIG. 2): dose-dependently reduced the MCT-induced elevation in MPAP | effect on heart rate [2, 5]: no effect | effect on peripheral blood pressure [2, 5]: no effect | effect on MCT-induced elevation in MPAP ([2]; IT aerosol delivering 0.6, 6.0 or 30 micrograms per kg, sustained effect, p<0.001, FIG. 3): dose-dependently reduced the MCT-induced elevation in MPAP | effect on heart rate ([3]; IV 15-90 μg/kg): no effect | effect on peripheral blood pressure ([3]; IV 15-90 μg/kg): no effect | persistence of effect on MPAP post dose ([3]; IV, FIG. 1B): at least 24 h | persistence of effect on MPAP after administration ([3]; IV, FIG. 1B legend): at least 24 hours | effect on MCT-induced elevation in MPAP ([3]; single IV 15, 30, 60, 90 μg/kg in PBS, 28 days post-MCT): dose-dependently reduced the MCT-induced elevation in MPAP | restoration of normal pressures (MPAP) ([3]; single IV dose 90 μg/kg, 28 days post-MCT, p<0.000005, FIG. 1A): 100% | restoration of normal pressures (MPAP) [4]: 80%
